Test results taken from paper PMC6073479, “Cecropin A Modulates Tight Junction-Related Protein Expression and Enhances the Barrier Function of Porcine Intestinal Epithelial Cells by Suppressing the MEK/ERK Pathway” (International Journal of Molecular Sciences, 2018).
No end group written: not given here.

Key:
[1] = test system: E. coli adherence to IPEC-J2 cells; assay: Quantifying adherent bacteria (CFU); type: cell-based, Escherichia coli; conditions: n = 3
Procedure: To calculate the number of adherent E. coli, E. coli were cocultured with IPEC-J2 cells in DMEM/high-glucose medium (no penicillin/streptomycin, no FBS). Then, the cells were washed with PBS six times and lysed with 1% Triton X-100 for 20 min at room temperature. Next, 5 μL lysates were plated on MacConkey agar plates overnight. The total number of bacteria was quantified as CFUs.

[2] = test system: IPEC-J2 cell monolayer; assay: Transepithelial electrical resistance (TER) measurement; type: cell-based, porcine
Procedure: To evaluate the barrier integrity of IPEC-J2 cells, the transepithelial resistance (TER) and was measured, and a permeability assay was performed. The initial TER was tested before the cells were seeded. IPEC-J2 cells were then seeded in a Transwell membrane insert ([…], 0.4 μm pore size, Corning) at a density of 7 × 10^5 cells/well. Then, 200 μL and 500 μL medium was added to the apical and basal compartments, respectively. Cecropin A (12.5 μg/mL) was added to the apical and basal compartments. The TER values were measured every day by using an ohm-meter fitted with chopstick electrodes (Millipore ESR-2; Burlington, MA, USA). Before each test, the plates were placed at room temperature for 30 min. The TER was calculated by using the following equation:TER (Ω·cm^2) = (TER − TERinitial) × 0.3

[3] = test system: IPEC-J2 cells; conditions: MTT; 1.5–12.5 μg/mL, 8 h; compared to control group
Procedure: IPEC-J2 cells were cultured at 37 °C in 100% humidity and 5% CO2 conditions with DMEM/F12 (Thermo, Waltham, MA, USA) supplemented with 5% fetal bovine serum (Gibco, Waltham, MA, USA) and 1% penicillin/streptomycin.
Thiazolyl blue tetrazolium bromide (MTT) was purchased from Sigma-Aldrich (St. Louis, MI, USA). The MTT was dissolved in PBS (5 mg/mL). The cytotoxicity of AMPs to IPEC-J2 cells was tested by using an MTT assay. A density of 1 × 10^5 cells in 180 μL medium per well was seeded in 96-well plates (Corning, New York, NY, USA), and then 20 μL AMPs was added. The final concentrations were 200, 100, 50, 25, 12.5, 6.25, 3.125, were 1.56 μg/mL. After 8 h culture, 20 μL MTT was added, and then the cells were continued to culture for 4 h. The supernatant was discarded, and 150 μL DMSO was added. After 30 min shaking at room temperature, the absorbance was measured at a wavelength of 490 nm. The cell viability was calculated by using the following equation:Cell viability = (ODControl − ODAMP)/ODControl × 100%

[4] = test system: TNF-α mRNA expression; assay: qPCR of TNF-α mRNA in IPEC-J2 cells cocultured with E. coli; type: cell-based, porcine; conditions: IPEC-J2 cells after coculture with E. coli, treatment for 48 h, compared to non-treated cells, n = 6
Procedure: (§1) Total RNA was extracted using TRIzol reagent according to the manufacturer’s instructions. Concentration and purity of RNA was checked by using a NanoDrop 2000. cDNA was generated from 1 μg total RNA using a First Strand cDNA Synthesis Kit (Thermo Scientific, Waltham, MA, USA). Quantitative PCR (qPCR) was performed to quantify mRNA expression levels of IL-6, IL-8 and TNF-α relative to that of a housekeeping gene, glyceraldehyde-3-phosphate dehydrogenase (GAPDH) by using SYBR Green mix (ABI) according to the manufacturer’s instructions.

[5] = test system: ERK phosphorylation; assay: Western blotting of p-ERK(1/2)/ERK(1/2); type: cell-based, porcine; conditions: IPEC-J2 cells, versus control group, p < 0.01, n = 3
Procedure: (§2) The total protein was extracted with lysis buffer. The concentration of protein was tested by using a BCA protein assay kit (Thermo Scientific, Waltham, MA, USA) and mixed with 5× loading buffer. 20 μg protein sample was loaded in each well. The supernatant was then separated by 10% SDS-PAGE and transferred onto a PVDF membrane (Millipore, Burlington, MA, USA). After blocking with 5% skimmed milk powder, the membrane was incubated with the appropriate primary antibodies overnight at 4 °C, followed by incubation with a horseradish peroxidase (HRP)-conjugated secondary antibody for 2 h. Bands were detected using an ECL Western Blotting Substrate (Thermo Scientific, Waltham, MA, USA). Band intensity was quantified using ImageJ software. The primary antibodies including β-actin, p-MEk, MEK, p-ERK, ERK, CDX2 were purchased from Cell Signaling Technology (CST, Danvers, MA, USA).

[6] = test system: ZO-1, claudin-1 and occludin membrane distribution; assay: Cell immunofluorescence of tight junction proteins; type: cell-based, porcine; conditions: IPEC-J2 cells, 400×, n = 3
Procedure: (§3) To test the expression and location of tight junction proteins (ZO-1, occludin and claudin-1) and the cytoskeleton (F-actin), cell immunofluorescence was used. The IPEC-J2 cells were cultured and became confluent on the slide. After treatment, the cells were washed with PBS three times, fixed with 4% polyoxymethylene for 30 min, and then washed by PBS again three times. For F-actin staining, 0.5% Triton X-100 was added for 20 min. After that, 0.5% bovine serum albumin was added for 1 h, and then the primary antibodies were added and incubated with the cells at 4 °C overnight. The slides were then washed with PBST three times, and the FITC-labeled secondary antibody was added for 2 h. At last, the cell nuclei were stained by using DAPI (Santa Cruz Biotechnology, Dallas, TX, USA). The slides were then observed by using a fluorescence microscope. Primary antibodies including occludin (Abcam, Cambridge, UK), claudin-1 (CST, Danvers, MA, USA) and ZO-1 (Thermo Fisher Scientific, Waltham, MA, USA) were used. For staining F-actin, FITC-phalloidin (Sigma-Aldrich, St. Louis, MI, USA) was used.

[7] = test system: claudin-1 protein expression; assay: Western blotting of claudin-1; type: cell-based, porcine; conditions: IPEC-J2 cells, versus control group, n = 3
Procedure: as §2

[8] = test system: F-actin polymerization; assay: Cell immunofluorescence of F-actin (FITC-phalloidin); type: cell-based, porcine; conditions: IPEC-J2 cells; FITC-phalloidin staining, 400×; n = 3
Procedure: as §3

[9] = test system: gram-negative bacterial strains, such as E. coli, Salmonella and Pseudomonas aeruginosa; assay: MIC/MBC test; type: cell-based; conditions: gram-negative strains versus Staphylococcus aureus
Procedure: The Escherichia coli ATCC 35401, ATCC 35150, ATCC 25922, and SSI 82000, Pseudomonas aeruginosa ATCC 9027 and ATCC 27853, Salmonella ATCC13312 and ATCC9120, Salmonella typhimurium ATCC 14028, and Staphylococcus aureus ATCC 29213 strains were purchased from Guangdong Culture Collection Center. The Escherichia coli W25K strain was isolated from a piglet with diarrhea as described previously. The strains were cultured in LB medium to logarithmic growth period (OD = 0.5) and then were transferred to Mueller-Hinton Broth (MHB) medium for the minimum inhibitory concentration (MIC) or minimum bactericidal concentration (MBC) test.
The MIC test was assessed according to the process of the Clinical and Laboratory Standards Institute. The bacterial strains were diluted with MHB medium, and the concentration was 5 × 10^5 CFU/mL. Then, 180 μL bacterial suspension was transferred to 96-well cell plates. […] Then, the bacteria were cultured at 37 °C for 8 h.

[10] = test system: IPEC-J2 cell monolayer; assay: FITC-dextran paracellular permeability assay; type: cell-based, porcine; conditions: 12.5 μg/mL; 48 h and 72 h; FITC-dextran 5 mg/mL apical, 2 h; fluorescence 480/520 nm; p < 0.05; n = 6
Procedure: To evaluate the permeability of the monolayer intestinal cells, FITC-dextran was used. FITC-dextran (Sigma-Aldrich, St. Louis, MO, USA) was dissolved in PBS at 5 mg/mL. After the medium was discarded, 200 μL FITC-dextran was added to the apical compartment, and 500 μL PBS was added to the basal compartment and cultured for 2 h. Then, 100 μL liquid from each well was transferred to 96-well plates, and the […] was read at 480 nm excitation and 520 nm emission wavelengths. Then, the content of the FITC-dextran in the basal compartment was calculated using a standard curve.

[11] = test system: IL-6 mRNA expression; assay: qPCR of IL-6 mRNA in IPEC-J2 cells cocultured with E. coli; type: cell-based, porcine; conditions: IPEC-J2 cells after coculture with E. coli, treatment for 48 h, compared to non-treated cells, n = 6
Procedure: as §1

[12] = test system: MEK phosphorylation; assay: Western blotting of p-MEK/MEK; type: cell-based, porcine; conditions: IPEC-J2 cells, versus control group, p < 0.01, n = 3
Procedure: as §2

[13] = test system: ZO-1 protein expression; assay: Western blotting of ZO-1; type: cell-based, porcine; conditions: IPEC-J2 cells, versus control group, n = 3
Procedure: as §2

[14] = test system: occludin protein expression; assay: Western blotting of occludin; type: cell-based, porcine; conditions: IPEC-J2 cells, versus control group, n = 3
Procedure: as §2

[15] = test system: CDX2 protein level; assay: Western blotting of CDX2; type: cell-based, porcine; conditions: IPEC-J2 cells, compared with control group, p < 0.001, n = 3
Procedure: as §2

[16] = test system: IL-8 mRNA expression; assay: qPCR of IL-8 mRNA in IPEC-J2 cells cocultured with E. coli; type: cell-based, porcine; conditions: IPEC-J2 cells after coculture with E. coli, treatment for 48 h, compared to non-treated cells, n = 6
Procedure: as §1

| Compound | adherence of E. coli ([1]; IPEC-J2 cells, inhibitor 10 μM for 48 h, compared to cecropin A group) | TER values ([2]; IPEC-J2 monolayer on Transwell, 12.5 μg/mL apical and basal, at 48 h and 72 h, compared to control cells, p < 0.01, n = 6) | TER values ([2]; inhibitor experiment (Figure 5), 24 and 48 h, compared with control group, n = 3) | IPEC-J2 cell viability [3] | E. coli adherence (CFU of adherent bacteria) ([1]; IPEC-J2 cells pretreated with 3.125, 6.25 and 12.5 μg/mL for 48 h) | TNF-α mRNA expression [4] | ERK phosphorylation [5] | membrane distribution of ZO-1, claudin-1 and occludin (TJs) [6] | claudin-1 protein level [7] | F-actin polymerization / distribution [8] | antibacterial activity against E. coli, Salmonella typhimurium and Pseudomonas aeruginosa compared with Staphylococcus aureus [9] | permeability of the IPEC-J2 cell monolayer (4 kDa FITC-dextran in basal compartment) [10] | IL-6 mRNA expression [11] | MEK phosphorylation [12] | ZO-1 protein level [13] | occludin protein level [14] | CDX2 protein level [15] | IL-8 mRNA expression [16] |
| --- | --- | --- | --- | --- | --- | --- | --- | --- | --- | --- | --- | --- | --- | --- | --- | --- | --- | --- |
| O=C(NOCC1CC1)c1ccc(F)c(F)c1Nc1ccc(I)cc1Cl [PD184352] | reduced |  |  |  |  |  |  |  |  |  |  |  |  |  |  |  |  |  |
| KWKLFKKIEKVGQNIRDGIIKAGPAVAVVGQATQIAK-NH2 (C-terminus assumed) [cecropin A] |  | significantly increased | significantly higher | not reduced | reduced E. coli adherence in a dose-dependent manner | downregulated | downregulates | much more polymerized at the cell–cell boundary | significantly upregulated | much more polymerized at the cell–cell boundary | much higher | reduces the permeability | downregulated | downregulates | significantly upregulated | significantly upregulated | upregulated | downregulated |
